Experimental data: patent publication US12410136B2, “Pyridinyl morpholine compound, preparation method therefor, and application thereof” (SHANGHAI ZHONGZE THERAPEUTICS, CO. LTD., priority 2020, dated 2025)

Experiments:
[1] = target: T1, human recombinant D3 receptor (Homo sapiens, UniProt P35462); assay: Dopamine D3 receptor binding test; details: [3H]methyl-spiperone 0.3 nM, human recombinant D3 receptor expressed in CHO cells; read-out: Affinity of the compound for each receptor (Ki value, nM) D3
T1 construct: expressed in transfected cells; host or cells: CHO
Procedure: Dopamine D3 Receptor Binding Test
[^3H]methyl-spiperone (0.3 nM) was used as the ligand, and (+)-butaclamol (10 μM) was used to determine the non-specific binding, and the binding assay was performed on human recombinant D3 receptor (expressed in CHO cells).

[2] = target: T2, 5-HT2A receptor (Homo sapiens, UniProt P28223); assay: 5-HT2A receptor binding test; details: [3H]-Ketanserin, 5-HT2A receptor expressed in HEK293 cells; read-out: Affinity of the compound for each receptor (Ki value, nM) 5-HT2A
T2 construct: expressed in transfected cells; host or cells: HEK293
From the text: 5-HT2A Receptor Binding Test
Beckman LS-6500 multifunctional liquid scintillation counter.
Tris-HCl reaction buffer (pH 7.7) was used to resuspend in the experiment.

[3] = target: T3, H1 receptor (Homo sapiens, UniProt P35367); assay: H1 receptor binding test; details: 1 nM [3H]pyrilamine, HEK-293 cell membrane homogenate; read-out: Affinity of the compound for H1 receptor (Ki value, nM) H1
T3 construct: expressed in transfected cells; host or cells: HEK-293
Procedure: Non-specific binding was determined in the presence of 1 μM pyrilamine.

[4] = target: D2 receptor (Homo sapiens, UniProt P14416); assay: Dopamine D2 receptor binding test
Chain of D2 receptor (P14416 whole entry): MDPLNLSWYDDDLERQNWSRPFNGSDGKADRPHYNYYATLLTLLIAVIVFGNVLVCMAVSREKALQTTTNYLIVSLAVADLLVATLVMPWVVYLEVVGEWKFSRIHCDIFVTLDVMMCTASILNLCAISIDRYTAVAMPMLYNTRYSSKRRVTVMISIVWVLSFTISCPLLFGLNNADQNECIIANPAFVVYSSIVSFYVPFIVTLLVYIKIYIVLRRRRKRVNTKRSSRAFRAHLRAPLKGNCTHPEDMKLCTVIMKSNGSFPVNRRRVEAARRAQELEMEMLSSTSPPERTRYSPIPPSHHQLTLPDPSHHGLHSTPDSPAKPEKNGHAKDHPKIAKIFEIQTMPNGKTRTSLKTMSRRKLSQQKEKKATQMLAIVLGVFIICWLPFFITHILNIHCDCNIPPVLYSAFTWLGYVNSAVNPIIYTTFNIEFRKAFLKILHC
Procedure: Dopamine D2 Receptor Binding Test
In this experiment, HEK293 cells were transfected with plasmid vector containing D2 receptor protein gene, and calcium phosphate transfection method was used and after transfection, the cells were cultured in a culture solution containing G418, and the cell monoclonal and radioligand binding experiments were selected, and finally a stable cell line which could stably express D2 receptor protein was obtained.
HeK-293 cells were infected with recombinant viruses containing the above various genes respectively, and after 48-72 hours, the receptor proteins were expressed in large quantities on the membrane, and the cells were centrifuged at 1000 rpm for 5 min and then the culture solution was discarded, and the cells were collected, and stored in a −20° C. refrigerator for later use. Tris-HCl reaction buffer (pH=7.5) was used to resuspend in the experiment.
On the Millipore cell sample collector, the mixture was quickly filtrated under reduced pressure through GF/C glass fiber filter paper, and eluted with 3 mL of eluent (50 mMTris-HCl, pH 7.5) for 3 times, then dried under microwave for 5 to 6 min. The filter paper was moved into a 0.5 mL centrifuge tube, and 500 μL of lipid-soluble scintillation solution was added. The mixture was kept in the dark for more than 30 min, and the radioactivity intensity was determined by counting. […] Two replicate tubes were made for each experiment of compound, and two separate experiments were performed.
Two tubes were tested for each concentration and two independent tests were performed for each compound.

T1 sequence (P35462 whole entry): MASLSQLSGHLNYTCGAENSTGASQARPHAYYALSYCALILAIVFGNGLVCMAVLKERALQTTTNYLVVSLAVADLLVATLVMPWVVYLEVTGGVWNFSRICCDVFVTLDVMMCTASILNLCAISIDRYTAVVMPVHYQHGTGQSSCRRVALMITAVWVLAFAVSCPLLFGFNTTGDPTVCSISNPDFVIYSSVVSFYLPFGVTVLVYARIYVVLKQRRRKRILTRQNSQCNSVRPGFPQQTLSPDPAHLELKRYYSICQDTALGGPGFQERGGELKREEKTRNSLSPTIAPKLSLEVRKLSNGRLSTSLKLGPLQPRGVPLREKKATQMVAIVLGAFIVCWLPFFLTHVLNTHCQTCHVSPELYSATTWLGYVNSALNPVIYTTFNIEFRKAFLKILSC
T2 sequence (P28223 whole entry): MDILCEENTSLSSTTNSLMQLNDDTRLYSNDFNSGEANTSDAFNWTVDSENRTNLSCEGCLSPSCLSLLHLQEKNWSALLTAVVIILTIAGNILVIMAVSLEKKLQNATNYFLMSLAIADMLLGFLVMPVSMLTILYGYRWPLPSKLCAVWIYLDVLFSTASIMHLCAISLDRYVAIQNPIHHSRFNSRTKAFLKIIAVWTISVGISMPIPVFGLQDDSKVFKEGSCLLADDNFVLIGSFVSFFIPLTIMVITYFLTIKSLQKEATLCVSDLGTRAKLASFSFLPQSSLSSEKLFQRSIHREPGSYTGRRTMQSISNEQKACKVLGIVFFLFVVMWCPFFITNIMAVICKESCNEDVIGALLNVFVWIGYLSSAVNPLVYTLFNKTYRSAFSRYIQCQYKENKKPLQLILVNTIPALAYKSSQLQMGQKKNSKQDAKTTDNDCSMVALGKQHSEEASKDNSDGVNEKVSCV
T3 sequence (P35367 whole entry): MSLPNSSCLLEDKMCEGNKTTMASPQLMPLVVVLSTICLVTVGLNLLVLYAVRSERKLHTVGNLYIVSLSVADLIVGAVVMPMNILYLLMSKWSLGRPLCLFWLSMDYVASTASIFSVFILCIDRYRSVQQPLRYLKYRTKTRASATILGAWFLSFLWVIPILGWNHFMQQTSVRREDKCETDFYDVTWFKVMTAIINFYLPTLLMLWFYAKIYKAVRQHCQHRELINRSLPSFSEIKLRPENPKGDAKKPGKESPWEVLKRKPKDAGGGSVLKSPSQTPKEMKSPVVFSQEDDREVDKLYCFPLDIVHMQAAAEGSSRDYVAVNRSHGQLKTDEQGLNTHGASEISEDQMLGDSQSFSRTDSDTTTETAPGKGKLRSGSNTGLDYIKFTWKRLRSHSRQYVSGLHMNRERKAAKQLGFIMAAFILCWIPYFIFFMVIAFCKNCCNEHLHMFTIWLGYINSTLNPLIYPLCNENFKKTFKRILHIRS

| SMILES | Ki [1] | Ki [2] | Ki [3] | Ki [4] |
| --- | --- | --- | --- | --- |
| CC(=O)N[C@H]1CC[C@H](CCN2CCN(c3cc(-c4ccccc4)cc(N4CCOCC4)n3)CC2)CC1 [Compound I-1, N-(trans-4-(2-(4-(6-morpholino-4-phenylpyridin-2-yl)piperazin-1-yl)ethyl)cyclohexyl)acetamide] | 0.2 nM | 1.7 nM | 760 nM | 3.1 nM |
| CCCC(=O)N[C@H]1CC[C@H](CCN2CCN(c3cc(-c4ccccc4)cc(N4CCOCC4)n3)CC2)CC1 [Compound I-2, N-(trans-4-(2-(4-(6-morpholino-4-phenylpyridin-2-yl)piperazin-1-yl)ethyl)cyclohexyl)butyramide] | 0.1 nM | 1.9 nM | 950 nM | 1.2 nM |
| O=C(N[C@H]1CC[C@H](CCN2CCN(c3cc(-c4ccccc4)cc(N4CCOCC4)n3)CC2)CC1)C1CC1 [Compound I-4, N-((trans)-4-(2-(4-(6-morpholino-4-phenylpyridin-2-yl)piperazin-1-yl)ethyl)cyclohexyl)cyclopropanecarboxamide] | 0.05 nM | 3.9 nM | 550 nM | 2 nM |
| O=C(N[C@H]1CC[C@H](CCN2CCN(c3cc(-c4ccccc4)cc(N4CCOCC4)n3)CC2)CC1)C1CCCCC1 [Compound I-5] | 0.9 nM | 1.1 nM | > 1000 nM | 8.6 nM |
| CN(C)C(=O)N[C@H]1CC[C@H](CCN2CCN(c3cc(-c4ccccc4)cc(N4CCOCC4)n3)CC2)CC1 [Compound I-7, 1,1-dimethyl-3-(trans-4-(2-(4-(6-morpholino-4-phenylpyridin-2-yl)piperazin-1-yl)ethyl)cyclohexyl)urea] | 0.01 nM | 0.2 nM | 420 nM | 0.12 nM |
| CC(=O)N[C@H]1CC[C@H](CCN2CCN(c3cc(-c4ccco4)cc(N4CCOCC4)n3)CC2)CC1 [Compound V-1, N-(trans-4-(2-(4-(4-(furan-2-yl)-6-morpholinopyridin-2-yl)piperazin-1-yl)ethyl)cyclohexyl)acetamide] | 0.7 nM | 1.6 nM | 530 nM | 8.1 nM |
| COCC(=O)N[C@H]1CC[C@H](CCN2CCN(c3cc(-c4ccco4)cc(N4CCOCC4)n3)CC2)CC1 [Compound V-2, N-(trans-4-(2-(4-(4-(furan-2-yl)-6-morpholinopyridin-2-yl)piperazin-1-yl)ethyl)cyclohexyl)-2-methoxyacetamide] | – | 8.8 nM | 740 nM | 15.2 nM |
| CN(C)C(=O)N[C@H]1CC[C@H](CCN2CCN(c3cc(-c4ccco4)cc(N4CCOCC4)n3)CC2)CC1 [Compound V-3, 3-(trans-4-(2-(4-(4-(furan-2-yl)-6-morpholinopyridin-2-yl)piperazin-1-yl)ethyl)cyclohexyl)-1,1-dimethylurea] | 0.07 nM | 5 nM | 800 nM | 7.1 nM |

The remaining lines, values ahead:

| Ki [1] | Ki [2] | Ki [3] | Ki [4] | SMILES |
| --- | --- | --- | --- | --- |
| – | – | 300 nM | – | CN(C)C(=O)N[C@H]1CC[C@H](CCN2CCN(c3cc(-c4ccc(F)cc4)cc(N4CCOCC4)n3)CC2)CC1 [II-5, 3-(trans-4-(2-(4-(4-(4-fluorophenyl)-6-morpholinopyridin-2-yl)piperazin-1-yl)ethyl)cyclohexyl)-1,1-dimethylurea] |
| – | 6.6 nM | 980 nM | 11.8 nM | COc1ccc(-c2cc(N3CCOCC3)nc(N3CCN(CC[C@H]4CC[C@H](NC(=O)N5CCN(C)CC5)CC4)CC3)c2)cc1 [III-4, N-(trans-4-(2-(4-(4-(4-methoxyphenyl)-6-morpholinopyridin-2-yl)piperazin-1-yl)ethyl)cyclohexyl)-4-methylpiperazine-1-carboxamide] |
| – | 3.8 nM | 870 nM | 5.1 nM | O=C(N[C@H]1CC[C@H](CCN2CCN(c3cc(-c4ccc[nH]4)cc(N4CCOCC4)n3)CC2)CC1)C1CCCCC1 [VII-3, N-(trans-4-(2-(4-(6-morpholino-4-(1H-pyrrol-2-yl)pyridin-2-yl)piperazin-1-yl)ethyl)cyclohexyl)cyclohexanecarboxamide] |
